According to patent US6432982B1, “Benzothiophenes, and formulations and methods using same” (Eli Lilly and Company, priority 1996, dated 2002):
Marks after values point to notes of the source that are not given here.

Columns and labels:
[1] = test system: uterine eosinophil peroxidase; test: Uterine Eosinophil Peroxidase (EPO) Assay; format: in vivo, Sprague Dawley rats; conditions: for Uterine Eosinophil (Vmax) (Eosinphil peroxidase Vmaxium): OVX rats, oral, daily for 4 days
Description: (§1) Seventy-five day old female Sprague Dawley rats (weight range of 200 to 225 g) are obtained from Charles River Laboratories (Portage, Mich.). The animals are either bilaterally ovariectomized (OVX) or exposed to a Sham surgical procedure at Charles River Laboratories, and then shipped after one week. Upon arrival, they are housed in metal hanging cages in groups of 3 or 4 per cage and had ad libitum access to food (calcium content approximately 0.5%) and water for one week. Room temperature is maintained at 22.2°±1.7° C. with a minimum relative humidity of 40%. The photoperiod in the room is 12 hours light and 12 hours dark.
(§2) After a one week acclimation period (therefore, two weeks post-OVX) daily dosing with test compound is initiated. 17α-ethynyl estradiol or the test compound are given orally, unless otherwise stated, as a suspension in 1% carboxymethylcellulose or dissolved in 20% cyclodextrin. Animals are dosed daily for 4 days. Following the dosing regimen, animals are weighed and anesthetized with a ketamine: Xylazine (2:1, V:V) mixture and a blood sample is collected by cardiac puncture. The animals are then sacrificed by asphyxiation with CO2, the uterus is removed through a midline incision, and a wet uterine weight is determined.
Uteri are kept at 4° C. until time of enzymatic analysis. The uteri are then homogenized in 50 volumes of 50 mM Tris buffer (pH−8.0) containing 0.005% Triton X-100. Upon addition of 0.01% hydrogen peroxide and 10 mM O-phenylenediamine (final concentrations) in Tris buffer, increase in absorbance is monitored for one minute at 450 nm. The presence of eosonophils in the uterus is an indication of estrogenic activity of a compound. The maximal velocity of a 15 second interval is determined over the initial, linear portion of the reaction curve.

[2] = test system: uterus of ovariectomized (OVX) rats; test: Uterine weight in ovariectomized rat post-menopausal model; format: in vivo, Sprague Dawley rats; conditions: for Uterine Weight % inch (Uterine Weight % increase versus the ovarierectomized controls): oral, daily for 4 days
Protocol: (§3) In the examples illustrating the methods, a post-menopausal model is used in which effects of different treatments upon circulating lipids are determined.
as §1, §2

[3] = test system: ovariectomized (OVX) rats; test: Serum cholesterol analysis in ovariectomized rats; format: in vivo, Sprague Dawley rats; conditions: for Serum Cholest. % Dec. (Serum cholesterol decrease versus ovariectomized controls): oral, daily for 4 days
Protocol: as §3, §1, §2
Blood samples are allowed to clot at room temperature for 2 hours, and serum is obtained following centrifugation for 10 minutes at 3000 rpm. Serum cholesterol is determined using a Boehringer Mannheim Diagnostics high performance cholesterol assay. Briefly the cholesterol is oxidized to cholest-4-en-3-one and hydrogen peroxide. The hydrogen peroxide is then reacted with phenol and 4-aminophenazone in the presence of peroxidase to produce a p-quinone imine dye, which is read spectrophotemetrically at 500 nm. Cholesterol concentration is then calculated against a standard curve. The entire assay is automated using a Biomek Automated Workstation.

[4] = test system: MCF-7 breast adenocarcinoma cells; test: MCF-7 Proliferation Assay; format: cell-based; conditions: Homo sapiens, MCF7; tritiated thymidine incorporation, 48 hours with drug, versus the control (DMSO); read-out: IC50, inhibition of proliferation of MCF-7 cells
Protocol: MCF-7 breast adenocarcinoma cells (ATCC HTB 22) are maintained in MEM (minimal essential medium, phenol red-free, Sigma, St. Louis, Mo.) supplemented with 10% fetal bovine serum (FBS) (V/V), L-glutamine (2 mM), sodium pyruvate (1 mM), HEPES {(N-[2-hydroxyethyl]piperazine-N′-[2-ethanesulfonic acid]10 mM}, non-essential amino acids and bovine insulin (1 ug/mL) (maintenance medium). Ten days prior to assay, MCF-7 cells are switched to maintenance medium supplemented with 10% dextran coated charcoal stripped fetal bovine serum (DCC-FBS) assay medium) in place of 10% FBS to deplete internal stores of steroids. MCF-7 cells are removed from maintenance flasks using cell dissociation medium (Ca++/Mg++ free HBSS (phenol red-free) supplemented with 10 mM HEPES and 2 mM EDTA). Cells are washed twice with assay medium and adjusted to 80,000 cells/mL. Approximately 100 μL (8,000 cells) are added to flat-bottom microculture wells (Costar 3596) and incubated at 37° C. in a 5% CO2 humidified incubator for 48 hours to allow for cell adherence and equilibration after transfer. Serial dilutions of drugs or DMSO as a diluent control are prepared in assay medium and 50 μL transferred to triplicate microcultures followed by 50 μL assay medium for a final volume of 200 μL. […] Samples are counted by liquid scintillation using a Wallac BetaPlace β counter. […]

[5] = compared to the ovariectomized animals, EE2 orally at 0.1 mg/kg/day

| SMILES | Uterine Eosinophil (Vmax) (Eosinphil peroxidase Vmaxium) ([1]; dose 0.1 mg/kg) | eosinophil infiltration into the uterus (in words) ([1]; stromal layer of ovariectomized rat uteri) | effect on uterine weight (in words) [2, 5] | Uterine Weight % inch (Uterine Weight % increase versus the ovarierectomized controls) ([2]; dose 0.1 mg/kg) | effect on serum cholesterol (in words) [3, 5] | Serum Cholest. % Dec. (Serum cholesterol decrease versus ovariectomized controls) ([3]; dose 0.1 mg/kg) | Uterine Eosinophil (Vmax) (Eosinphil peroxidase Vmaxium) ([1]; dose 1.0 mg/kg) | Uterine Eosinophil (Vmax) (Eosinphil peroxidase Vmaxium) ([1]; dose 10.0 mg/kg) | Uterine Weight % inch (Uterine Weight % increase versus the ovarierectomized controls) ([2]; dose 1.0 mg/kg) [%] | Uterine Weight % inch (Uterine Weight % increase versus the ovarierectomized controls) ([2]; dose 10.0 mg/kg) | Serum Cholest. % Dec. (Serum cholesterol decrease versus ovariectomized controls) ([3]; dose 1.0 mg/kg) | Serum Cholest. % Dec. (Serum cholesterol decrease versus ovariectomized controls) ([3]; dose 10.0 mg/kg) | IC50 [4] [nM] |
| --- | --- | --- | --- | --- | --- | --- | --- | --- | --- | --- | --- | --- | --- |
| C#C[C@]1(O)CC[C@H]2[C@@H]3CCc4cc(O)ccc4[C@H]3CC[C@@]21C [EE2, 17α-ethynyl estradiol, reference compound] | 205.8* | substantial and expected increase in eosinophil infiltration | substantially greater than the uterine weight of the ovariectomized animals | 207.5* % | caused a decrease in serum cholesterol | 87.3* % | – | – | – | – | – | – | – |
| Cl.O=C(c1ccc(OCCN2CCCCC2)c(F)c1)c1c(-c2ccc(O)cc2)sc2cc(O)ccc12 [compound 1, [2-(4-Hydroxyphenyl)-6-hydroxybenzo[b]thien-3-yl][4-[2-(1-piperidinyl)ethoxy]3-fluorophenyl]methanone Hydrochloride] | 5.4 | – | – | 18.4% | – | 45.1* % | 4.5 | 2.7 | 14.9 | 12.5% | 59.5* % | 64.1* % | – |
| Cc1cc(C(=O)c2c(-c3ccc(O)cc3)sc3cc(O)ccc23)cc(C)c1OCCN1CCCCC1.Cl [compound 5, [2-(4-Hydroxyphenyl)-6-hydroxybenzo[b]thien-3-yl][4-[2-(1-piperidinyl)ethoxy]3,5-dimethylphenyl]methanone Hydrochloride] | 4.0 | – | – | −24.4% | – | 33.8* % | 7.2 | 25.9* | −16.4 | 27.4% | 55.5* % | 74.9* % | 40 |
| Cc1cc(C(=O)c2c(-c3ccc(O)cc3)sc3cc(O)ccc23)cc(C(C)(C)C)c1OCCN1CCCCC1.Cl [compound 6, [2-(4-Hydroxyphenyl)-6-hydroxybenzo[b]thien-3-yl][4-[2-(1-piperidinyl)ethoxy]-3-t-butyl-5-methylphenyl]methanone Hydrochloride] | – | – | – | – | – | – | 2.8 | – | −35.7 | – | 55.2* % | – | – |
| Cl.O=C(c1ccc(OCCN2CCCCC2)c(Cl)c1)c1c(-c2ccc(O)cc2)sc2cc(O)ccc12 [compound 7, [2-(4-Hydroxyphenyl)-6-hydroxybenzo[b]thien-3-yl][4-[2-(1-piperidinyl)ethoxy]3-chlorophenyl]methanone Hydrochloride] | – | – | – | – | – | – | – | 30.9 | – | 46.1* % | – | 62.2* % | – |
| Cl.O=C(c1ccc(OCCN2CCCCC2)cc1Cl)c1c(-c2ccc(O)cc2)sc2cc(O)ccc12 [compound 8, [2-(4-Hydroxyphenyl)-6-hydroxybenzo[b]thien-3-yl][4-[2-(1-piperidinyl)ethoxy]2-chlorophenyl]methanone Hydrochloride] | – | – | – | – | – | – | – | 12.0 | – | 37.5* % | – | 42.0* % | – |
| Cl.N#Cc1cc(C(=O)c2c(-c3ccc(O)cc3)sc3cc(O)ccc23)ccc1OCCN1CCCCC1 [compound 9, [2-(4-Hydroxyphenyl)-6-hydroxybenzo[b]thien-3-yl][4-[2-(1-piperidinyl)ethoxy]3-cyanophenyl]methanone Hydrochloride] | – | – | – | – | – | – | – | 7.8 | – | 16.8% | – | 38.8* % | – |
